Patent US20260232652A1, “COMBINATIONS OF DGK (DIACYLGLYCEROL KINASE) INHIBITORS” (priority 2023, published 2026)
Several values for one entry are separate records, joined by “and”; a condition that tells them apart may be missing. Equal values may be shown once.

Key:
human DGKzeta = target: T1, human DGKzeta (Homo sapiens, UniProt Q13574); test: Human DGKzeta kinase activity inhibition assay (ADP-Glo); format: biochemical; settings: read-out: IC50 hDGKz
T1 construct: C-terminally FLAG-tagged, recombinant full-length human DGKζ; made in house; host or cells: baculovirus-infected insect cells
T1 sequence (Q13574 whole entry): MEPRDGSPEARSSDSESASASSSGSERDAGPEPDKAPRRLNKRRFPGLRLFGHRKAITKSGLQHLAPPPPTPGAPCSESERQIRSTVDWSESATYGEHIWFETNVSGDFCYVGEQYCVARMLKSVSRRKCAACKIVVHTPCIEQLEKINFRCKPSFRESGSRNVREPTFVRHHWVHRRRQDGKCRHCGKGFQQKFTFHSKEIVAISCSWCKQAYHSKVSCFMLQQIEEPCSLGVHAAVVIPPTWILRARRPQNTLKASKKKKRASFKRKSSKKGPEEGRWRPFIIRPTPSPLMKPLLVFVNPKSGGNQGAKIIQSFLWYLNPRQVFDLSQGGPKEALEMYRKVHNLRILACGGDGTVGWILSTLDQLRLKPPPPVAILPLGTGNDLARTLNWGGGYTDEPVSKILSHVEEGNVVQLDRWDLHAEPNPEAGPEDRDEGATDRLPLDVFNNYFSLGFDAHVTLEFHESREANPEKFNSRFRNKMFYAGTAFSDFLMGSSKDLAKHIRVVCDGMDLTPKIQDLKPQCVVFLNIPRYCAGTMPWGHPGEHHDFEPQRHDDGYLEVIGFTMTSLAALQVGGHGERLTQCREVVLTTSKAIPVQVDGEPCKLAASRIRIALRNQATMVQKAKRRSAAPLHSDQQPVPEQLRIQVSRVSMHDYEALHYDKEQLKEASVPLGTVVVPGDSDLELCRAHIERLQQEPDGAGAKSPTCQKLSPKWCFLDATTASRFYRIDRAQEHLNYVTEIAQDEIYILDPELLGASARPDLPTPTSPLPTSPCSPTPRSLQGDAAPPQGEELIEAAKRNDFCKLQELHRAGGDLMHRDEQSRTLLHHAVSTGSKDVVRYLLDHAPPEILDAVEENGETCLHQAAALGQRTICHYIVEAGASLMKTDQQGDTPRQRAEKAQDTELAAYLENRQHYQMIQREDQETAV
Description: Human diacylglycerol kinase zeta (DGKζ) inhibitory activity of compounds of the present invention was quantified employing the human DGKζ kinase activity assay as described in the following paragraphs. In essence, the enzyme activity was measured by quantification of the adenosine-di-phosphate (ADP) generated as a co-product of the enzyme reaction via the “ADP-Glo™ Kinase Assay” kit from the company Promega. This detection system works as follows: In a first step the adenosine-tri-phosphate (ATP) not consumed in the kinase reaction is quantitatively converted to cyclic adenosine-mono-phosphate (cAMP) employing an adenylate cyclase (“ADP-Glo-reagent”), then the adenylate cyclase is stopped and the ADP generated in the kinase reaction is converted to ATP, which subsequently generates in a luciferase-based reaction a glow-luminescence signal (“Kinase Detection Reagent”).
C-terminally FLAG-tagged, recombinant full-length human DGKζ (inhouse expressed in baculovirus infected insect cells, purified using anti-Flag pulldown and size exclusion chromatography) was used as enzyme. As an alternative, commercially available enzyme by Carnabio can be used. As substrate for the kinase, 1,2-dioleoyl-sn-glycerol, reconstituted in octyl-β-D-glucopyranoside micelles, was used. […] Then 35 volumes of 50 mM MOPS buffer (pH 7.4) were added to yield a solution of 0.28 mM 1,2 dioleoyl-sn-glycerol and 200 mM octyl-β-D-glucopyranoside, which was aliquoted, flash-frozen in liquid nitrogen, and stored at −20° C. until use.
For the assay 50 nl of a 100-fold concentrated solution of the test compound in dimethyl sulfoxide (DMSO, Sigma) was pipetted into either a white 1536-well or a white low-volume 384-well microtiter plate (both Greiner Bio-One, Frickenhausen, Germany). […] The concentration of DGKζ was adjusted depending of the activity of the enzyme lot and was chosen appropriate to have the assay in the linear range, a typical concentration is about 0.1 nM. The reaction was stopped by the addition of 2.5 μL of “ADP-Glo-reagent” (1 to 1.5 diluted with water) and the resulting mixture was incubated at 22° C. for 1 h to convert the ATP not consumed in the kinase reaction completely to cAMP. […] The amount of emitted light was taken as a measure for the amount of ADP generated and thereby for the activity of the DGKζ.

Human PBMCs = test: Activation of PBMC cells (CD25+ of CD8+ naïve T-cells, flow cytometry); format: cell-based
Description: In addition to the experimental determination according to the protocol provided below, said proportion of CD25+ cells withing the CD8+ naïve T-cells was simulated according to Meyer et al., 2019, Cell Systems 8, 97-108, Feb. 27, 2019.
The relative amount of activated (CD25+) naïve CD8 T cells were analyzed by flow cytometry. Non-stimulated cells served as negative control, cells stimulated with 30 ng/ml aCD3/aCD28/IgG were used as positive control.

MC38 tumor bearing mice = test: MC38 tumor bearing mice, mean tumor volume (Example 7); format: in vivo; settings: DGKzeta inhibitor A′ 3 mg/kg QD p.o., TPP-15285 5 mg/kg BIW i.p.
Description: (§1) While the antibody administration was started on day 7 after tumor inoculation, the DGK inhibitor treatment started two days later, on day 9 after tumor inoculation. This schedule was designed to allow the efficient depletion of the Tregs by the anti-mouse CCR8 surrogate antibody before the DGK inhibitor activates the T cells. […] While the antibody administration was started on day 7 after tumor inoculation, the DGK inhibitor treatment started two days later, on day 9 after tumor inoculation. This schedule was designed to allow the efficient depletion of the Tregs by the anti-mouse CCR8 surrogate antibody before the DGK inhibitor activates the T cells. […] While the antibody administration was started on day 7 after tumor inoculation, the DGKalpha and DGKzeta inhibitor treatment started two days later, on day 9 after tumor inoculation. This schedule was designed to allow the efficient depletion of the Tregs by the anti-mouse CCR8 surrogate antibody before the DGK inhibitor activates the T cells. […] The DGKalpha and DGKzeta inhibitor treatment started on day 9 after tumor inoculation.

[1] = system: Hepa 1-6 tumor bearing mice; test: Hepa 1-6 tumor bearing mice, mean tumor volume (Example 8); format: in vivo; settings: DGKzeta inhibitor A′ 3 mg/kg QD p.o., TPP-15285 5 mg/kg BIW i.p.
Description: as §1

[2] = Day 0 (day 7 after tumor inoculation), DGKalpha inhibitor A 5 mg/kg QD p.o.
[3] = Day 4, DGKalpha inhibitor A 5 mg/kg QD p.o.
[4] = Day 7, DGKalpha inhibitor A 5 mg/kg QD p.o.
[5] = Day 11, DGKalpha inhibitor A 5 mg/kg QD p.o.
[6] = Day 14, DGKalpha inhibitor A 5 mg/kg QD p.o.
[7] = Day 18, DGKalpha inhibitor A 5 mg/kg QD p.o.
[8] = Day 0, DGKalpha inhibitor A 5 mg/kg QD p.o.
[9] = Day 20, DGKalpha inhibitor A 5 mg/kg QD p.o.

| SMILES | Mean tumor volume (MC38 tumor bearing mice; [2]) | Mean tumor volume (MC38 tumor bearing mice; [3]) | Mean tumor volume (MC38 tumor bearing mice; [4]) | Mean tumor volume (MC38 tumor bearing mice; [5]) | Mean tumor volume (MC38 tumor bearing mice; [6]) | Mean tumor volume (MC38 tumor bearing mice; [7]) | Mean tumor volume [1, 8] | Mean tumor volume [1, 3] | Mean tumor volume [1, 4] | Mean tumor volume [1, 5] | Mean tumor volume [1, 6] | Mean tumor volume [1, 7] | Mean tumor volume [1, 9] | also measured |
| --- | --- | --- | --- | --- | --- | --- | --- | --- | --- | --- | --- | --- | --- | --- |
| Cc1ccc2oc(C3CCN(c4c(C(N)=O)c(=O)n(C)c5ccc(F)cc45)CC3)nc2c1 [DGKalpha inhibitor A, 6-fluoro-1-methyl-4-[4-(5-methyl-1,3-benzoxazol-2-yl)piperidin-1-yl]-2-oxo-1,2-dihydroquinoline-3-carboxamide] | 91.74 mm^3 | 216.59 mm^3 | 483.4 mm^3 | 1057.04 mm^3 | 1585.28 mm^3 | 2961.81 mm^3 | 88.99 mm^3 | 186.75 mm^3 | 321.40 mm^3 | 461.93 mm^3 | 569.94 mm^3 | 787.30 mm^3 | 957.86 mm^3 | IC50 (human DGKzeta): 17.2 µM; CD25+ of CD8+ naïve T-cells, Observed (Human PBMCs; unbound DGKai 0.024 nM, DGKzi 0 nM): 4.1% and 3.1% and 12%; CD25+ of CD8+ naïve T-cells, Observed (Human PBMCs; unbound DGKai 0.24 nM, DGKzi 0 nM): 3.4% and 5.1% and 6.4%; CD25+ of CD8+ naïve T-cells, Observed (Human PBMCs; unbound DGKai 2.4 nM, DGKzi 0 nM): 8.3% and 2.1% and 5%; CD25+ of CD8+ naïve T-cells, Observed (Human PBMCs; unbound DGKai 24 nM, DGKzi 0 nM): 6.8% and 5.4% and 7.3%; CD25+ of CD8+ naïve T-cells, Observed (Human PBMCs; unbound DGKai 72 nM, DGKzi 0 nM): 9% and 6.7% and 12% |
| COc1ccc(C(=O)c2sc(N(c3ccc(F)cc3)[C@H](C)C(N)=O)nc2N)cc1 [DGKzeta inhibitor A′, (R)-2-(N-[4-amino-5-(4-methoxybenzoyl)thiazol-2-yl]-4-fluoro-anilino)propanamide] | 91.65 mm^3 | 216.68 mm^3 | 480.5 mm^3 | 982.9 mm^3 | 1448.04 mm^3 | 2879.9 mm^3 | 88.99 mm^3 | 224.86 mm^3 | 429.26 mm^3 | 624.07 mm^3 | 799.19 mm^3 | 1001.75 mm^3 | 1158.6 mm^3 | CD25+ of CD8+ naïve T-cells, Observed (Human PBMCs; unbound DGKai 0 nM, DGKzi 0.037 nM): 2% and 3.2%; CD25+ of CD8+ naïve T-cells, Observed (Human PBMCs; unbound DGKai 0 nM, DGKzi 0.37 nM): 1.7% and 1.6% and 4.2%; CD25+ of CD8+ naïve T-cells, Observed (Human PBMCs; unbound DGKai 0 nM, DGKzi 3.7 nM): 6% and 4.9% and 6.4%; CD25+ of CD8+ naïve T-cells, Observed (Human PBMCs; unbound DGKai 0 nM, DGKzi 11 nM): 15% and 10%; CD25+ of CD8+ naïve T-cells, Observed (Human PBMCs; unbound DGKai 0 nM, DGKzi 37 nM): 29% and 18%; CD25+ of CD8+ naïve T-cells, Observed (Human PBMCs; unbound DGKai 0 nM, DGKzi 111 nM): 34% and 25% and 35%; CD25+ of CD8+ naïve T-cells, Observed (Human PBMCs; unbound DGKai 0 nM, DGKzi 370 nM): 32% and 44% and 31% |
